These compounds were tested on HeLa cells (assay: HeLa cell 24 hr ploidy assay (DNA content)). Settings: Homo sapiens, HeLa, 4N ploidy, average, read-out: 24h_4NPloidy EC50_IP (uM Avg).
Format: cell-based
How it was run: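 HeLa cells (1×10^4/well, MEM+10% FBS) cultured 24 h, treated with serially diluted compounds (0.25% DMSO final), then fixed, permeabilized and stained with Hoechst 33342 (0.5 ug/ml). Imaging quantified % 4N and >4N cells; EC50 IP and EC50 transit derived from dose curves.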

Row | SMILES | EC50
1 | COc1cnc2c(Oc3ccc(Nc4nnc(-c5cccc(C)n5)c5ccccc45)cn3)ccnc2c1 [compound 128, N-(6-((7-(methyloxy)-1,5-naphthyridin-4-yl)oxy)-3-pyridinyl)-4-(6-methyl-2-pyridinyl)-1-phthalazinamine] | > 1.2 µM
2 | CCc1cc(-c2ccccc2)nnc1Nc1ccc(Oc2ccnc3cc(OC)cnc23)cc1 [compound 108] | 0.083 µM
3 | COc1cnc2c(Oc3ccc(Nc4nnc(-c5ccc6c(c5)CC(C)(C)O6)c5ccccc45)cc3)ccnc2c1 [compound 136] | 0.099 µM
4 | COc1cnc2c(Oc3ccc(Nc4nnc(-c5cccc(COC(C)=O)n5)c5ccccc45)cc3)ccnc2c1 [compound 132] | 0.323 µM
5 | COc1ccc2c(Oc3ccc(Nc4nnc(-c5ccccc5)c5ccccc45)cc3)ccnc2c1 [compound 91] | 0.03 µM
6 | COc1cnc2c(Oc3ccc(Nc4nnc(-c5ccccc5)c5ccccc45)nc3)ccnc2c1 [compound 135] | 0.449 µM
7 | CCc1cc(-c2ccccc2)nnc1Nc1ccc(Oc2ccnc3cc(C#N)ccc23)cc1 [compound 149] | 0.42 µM
8 | COc1cnc2c(Oc3ccc(Nc4nnc(-c5cccc(C)n5)c5ccccc45)cc3)ccnc2c1 [compound 111] | 0.109 µM

The next lines start with the values.

Row | EC50 | SMILES
9 | 0.036 µM | COc1cnc2c(Oc3ccc(Nc4nnc(N5CCCCCC5)c5ccccc45)cc3)ccnc2c1 [Example 32, 4-(azepan-1-yl)-N-(4-(7-methoxy-1,5-naphthyridin-4-yloxy)phenyl)phthalazin-1-amine]
10 | 0.009 µM | COc1cnc2c(Oc3ccc(Nc4nnc(-c5cc(C)cs5)c5ccccc45)cc3)ccnc2c1 [compound 152]

Same assay, conditions: Homo sapiens, HeLa, HeLa cells, 4N ploidy, average, read-out: 24h_4NPloidy EC50_IP (uM Avg)

Row | SMILES | EC50
11 | CCc1cc(-c2ccc(C)cc2)nnc1Nc1ccc(Oc2ccnc3cc(OC)cnc23)cc1 [compound 307] | 0.023 µM
12 | COc1cnc2c(Oc3ccc(Nc4nnc(-c5cc(Cl)cs5)c5ccccc45)cc3)ccnc2c1 [compound 316] | 0.027 µM
13 | COc1cnc2c(Sc3ccc(Nc4nnc(N5CCn6ccnc6C5)c5ccccc45)cc3)ccnc2c1 [compound 576] | 0.013 µM
14 | c1ccc(-c2nnc(Nc3ccc(Oc4ccnc5ccnn45)cc3)c3ccccc23)cc1 [compound 370] | 0.757 µM
15 | COCCOCCOc1ccc2nccc(Sc3ccc(Nc4nnc(-c5ccc(Cl)cc5)c5ccccc45)cc3)c2n1 [compound 475] | 0.017 µM
16 | Cn1cncc1-c1cc2nccc(Oc3ccc(Nc4nnc(-c5ccccc5)c5ccccc45)cc3)c2s1 [compound 202, N-(4-((2-(1-methyl-1H-imidazol-5-yl)thieno[3,2-b]pyridin-7-yl)oxy)phenyl)-4-phenyl-1-phthalazinamine] | 0.011 µM
17 | Oc1cc(-c2nnc(Nc3ccc(Sc4ccnc5cccnc45)cc3)c3ccccc23)ccc1Cl [compound 452] | < 0.0023 µM
18 | COc1cnc2c(Sc3ccc(Nc4nnc(C5CC5)c5ccccc45)cc3)ccnc2c1 [compound 541] | 0.038 µM
19 | COc1cnc2c(Oc3ccc(Nc4nnc(-c5cc6ccccc6s5)c5ccccc45)cc3)ccnc2c1 [compound 171] | 0.004 µM
20 | c1ccc(-c2nnc(Nc3ccc(Sc4ccnc5[nH]cnc45)cc3)c3ccccc23)cc1 [compound 362] | 0.105 µM
21 | COc1ccc2nccc(Oc3ccc(Nc4nnc(-c5ccc(Cl)cc5)c5ccccc45)cc3)c2c1 [compound 239] | 0.001 µM
22 | COc1cnc2c(Sc3ccc(Nc4nnc(N5CCN(S(C)(=O)=O)CC5)c5ccccc45)cc3)ccnc2c1 [compound 605] | 0.018 µM
23 | Cc1csc(-c2nnc(Nc3ccc(Oc4ccnc5cccnc45)cc3)c3cc(F)c(F)cc23)c1 [compound 510] | 0.017 µM
24 | COc1cnc2c(Sc3ccc(Nc4nnc(-c5ccc(C)c(OC)c5)c5ccccc45)cc3)ccnc2c1 [compound 529] | 0.006 µM
25 | O=C(c1cc2nccc(Oc3ccc(Nc4nnc(-c5ccc(Cl)cc5)c5ccccc45)cc3)c2s1)N1CCOCC1 [compound 259] | 0.051 µM
26 | COc1cc2nccc(Oc3ccc(Nc4nnc(-c5ccccc5)c5ccccc45)cc3)c2cc1C(N)=O [compound 225] | 0.004 µM
27 | Clc1ccc(-c2nnc(Nc3ccc(Oc4ccnc5[nH]ccc45)cc3)c3ccccc23)cc1 [compound 241] | 0.101 µM

Row | SMILES | EC50
28 | COc1cc(OC)c2c(Oc3ccc(Nc4nnc(-c5ccc(Cl)cc5)c5ccccc45)cc3)ccnc2c1 [compound 435] | 0.009 µM
29 | COc1cnc2c(Oc3ccc(Nc4nnc(N5CCSCC5)c5ccccc45)cc3)ccnc2c1 [compound 337] | 0.229 µM
30 | COc1cnc2c(Sc3ccc(Nc4nnc(N5CCN6CCCC[C@@H]6C5)c5ccccc45)cc3)ccnc2c1 [compound 580] | 0.005 µM
31 | COc1cnc2c(Oc3ccc(Nc4nnc(-c5ccc(C)c(N)c5)c5ccccc45)cc3)ccnc2c1 [compound 209] | 0.004 µM
32 | Cc1cccc(-c2nnc(Nc3ccc(Sc4ccnc5ccoc45)cc3)c3ccccc23)n1 [compound 488] | 0.241 µM
33 | Clc1ccc(-c2nnc(Nc3ccc(Sc4ccnc5ccncc45)cc3)c3ccccc23)cc1 [compound 426] | 0.008 µM
34 | Cc1csc(-c2nnc(Nc3ccc(Oc4ccnc5ccc(OC(F)(F)F)cc45)cc3)c3ccccc23)c1 [compound 575] | 0.112 µM
35 | CCc1cc(-c2cccc(Cl)c2)nnc1Nc1ccc(Oc2ccnc3cc(OC)cnc23)cc1 [compound 335] | 0.191 µM
36 | COc1cnc2c(N(C)c3ccc(Nc4nnc(-c5cc(C)cs5)c5ccccc45)cc3)ccnc2c1 [compound 247] | 0.112 µM
37 | Cc1nc(-c2nnc(Nc3ccc(Oc4ccnc5cc(C#N)ccc45)cc3)c3ccccc23)sc1C [compound 277] | 0.035 µM
38 | COc1cc(OC)c2c(Oc3ccc(Nc4nnc(-c5cc(C)cs5)c5ccccc45)cc3)ccnc2c1 [compound 441] | 0.008 µM
39 | COc1cnc2c(Oc3ccc(Nc4nnc(-c5ccccc5)c(C)c4C)cc3)ccnc2c1 [compound 281] | 0.378 µM
40 | COc1cnc2c(Sc3ccc(Nc4nnc(N5CCn6ncnc6C5)c5ccccc45)cc3)ccnc2c1 [compound 579] | 0.054 µM
41 | COc1cnc2c(Oc3ccc(Nc4nnc(-c5ccc(Cl)cc5)c5ccccc45)cc3F)ccnc2c1 [compound 284] | 0.011 µM
42 | COc1cccc(-c2nnc(Nc3ccc(Oc4ccnc5ccccc45)c(F)c3)c3ccccc23)n1 [compound 186] | 0.031 µM
43 | COCCOCCn1c(=O)ccc2nccc(Sc3ccc(Nc4nnc(-c5ccc(Cl)cc5)c5ccccc45)cc3)c21 [compound 476] | 0.14 µM

Results, then the compound that gave them:

Row | EC50 | SMILES
44 | 0.026 µM | COc1cnc2c(Sc3ccc(Nc4nnc(N5CC(C)CC(C)C5)c5ccccc45)cc3)ccnc2c1 (stereo not shown) [compound 556]
45 | 0.113 µM | COc1cc(OC)c2c(Sc3ccc(Nc4nnc(-c5cc(C)cs5)c5ccccc45)cc3)ccnc2c1 [compound 439]
46 | 0.031 µM | COc1cnc2c(Sc3ccc(Nc4nnc(Cl)c5ccccc45)cc3)ccnc2c1 [compound 536]
47 | 0.017 µM | COc1cccc(-c2nnc(Nc3ccc(Sc4ccnc5ccccc45)cc3)c3ccccc23)n1 [compound 327]
48 | 0.031 µM | COc1cnc2c(Oc3ccc(Nc4nnc(-c5cccc(Cl)c5)c5ccccc45)cc3)ccnc2c1 [compound 219]
49 | 0.064 µM | COc1cnc2c(Sc3ccc(Nc4nnc(N5CCCC(C)(C)C5)c5ccccc45)cc3)ccnc2c1 [compound 555]
50 | 0.828 µM | Cc1noc(-c2cc3nccc(Oc4ccc(Nc5nnc(-c6ccccc6)c6ccccc56)cc4)c3s2)n1 [compound 288]
51 | ≥ 1.2 µM | Clc1ccc(-c2nnc(Nc3ccc(Sc4ccnc5ccccc45)cc3)c3ccccc23)cc1 [compound 333]
52 | 0.007 µM | COc1cnc2c(Oc3ccc(Nc4nnc(-c5ccc(C)c(Cl)c5)c5ccccc45)cc3)ccnc2c1 [compound 224]
53 | ≥ 1.2 µM | N#Cc1ccc2c(Oc3ccc(Nc4nnc(-c5ccccc5)c5ccccc45)cn3)ccnc2c1 [compound 174]
54 | 0.036 µM | O=c1ccc2nccc(Sc3ccc(Nc4nnc(-c5ccc(Cl)cn5)c5ccccc45)cc3)c2[nH]1 [Example 405, 8-(4-(4-(5-Chloropyridin-2-yl)phthalazin-1-ylamino)phenylthio)-1,5-naphthyridin-2(1H)-one]
55 | 0.044 µM | COc1cnc2c(Oc3ccc(Nc4nnc(-c5ccc(OC)c(C)c5)c5ccccc45)cc3)ccnc2c1 [compound 213]
56 | < 0.0023 µM | COc1cc(F)cc2nccc(Oc3ccc(Nc4nnc(-c5cc(C)cs5)c5ccccc45)cc3)c12 [compound 442]
57 | 0.226 µM | O=C(Nc1cc(Oc2ccc(Nc3nnc(-c4ccccc4)c4ccccc34)cc2F)ccn1)N1CCOCC1 [compound 179]
58 | 0.008 µM | COc1cnc2c(Oc3c(F)cc(Nc4nnc(-c5ccc(Cl)cc5)c5ccccc45)cc3F)ccnc2c1 [compound 454]
59 | 0.021 µM | COc1cnc2c(Oc3ccc(Nc4nnc(-c5ccc6c(ccn6C)c5)c5ccccc45)cc3)ccnc2c1 [compound 204, 4-(1-methyl-1H-indol-5-yl)-N-(4-((7-(methyloxy)-1,5-naphthyridin-4-yl)oxy)phenyl)-1-phthalazinamine]
60 | > 1.2 µM | COc1cc2nncc(Oc3ccc(Nc4nnc(-c5ccccc5)c5ccccc45)cc3)c2cc1OC [compound 254]
61 | 0.083 µM | CCc1cc(-c2ccc(C)cc2)nnc1Nc1ccc(Nc2ccnc3cc(OC)cnc23)cc1 [compound 595]
62 | < 0.0023 µM | COc1cnc2c(Sc3ccc(Nc4nnc(N5CCN6CCC[C@H]6C5)c5ccccc45)cc3)ccnc2c1 [compound 563]
63 | 0.004 µM | COc1cnc2c(Sc3ccc(Nc4nnc(-c5ccc(C)nc5)c5ccccc45)cc3)ccnc2c1 [compound 588]
64 | 0.372 µM | COc1cnc2c(N(C)c3ccc(Nc4nnc(-c5ccccc5)c5ccccc45)cc3)ccnc2c1 [compound 51, N-methyl-N-(7-(methyloxy)-1,5-naphthyridin-4-yl)-N′-(4-phenyl-1-phthalazinyl)-1,4-benzenediamine]
65 | 0.005 µM | COc1cnc2c(Sc3ccc(Nc4nnc(-c5ccc(OC)nc5)c5ccccc45)cc3)ccnc2c1 [compound 583]
66 | < 0.0023 µM | COc1cnc2c(Sc3ccc(Nc4nnc(-c5ccc6cn[nH]c6c5)c5ccccc45)cc3)ccnc2c1 [compound 453]
67 | 0.22 µM | CNC(=O)c1cc(Oc2ccc(Nc3nnc(-c4ccc(Cl)cc4)c4ccccc34)cc2)ccn1 [compound 361]

Source: patent publication US20140336182A1, “Aurora Kinase Modulators and Method of Use” (Amgen Inc., priority 2013, published 2014)
